The results in this text go back to US9868727B2, “Factor XIa inhibitors” (Merck Sharp & Dohme Corp., priority 2014, dated 2018).

Assay [1] has as its target T1, purified Human plasma kallikrein (Homo sapiens, UniProt P03952).
T1 construct: yields a heavy chain (371 amino acids) and a light chain (248 amino acids); purchased Enzyme Research Laboratories
Kind of assay: Kallikrein Assay. The conditions noted are these: Plasma Kallekrein IC50; fluorogenic substrate Acetyl-K-P-R-AFC, 0.5 nM enzyme, pH 7.4; read-out: PK IC50. In kind it is biochemical. The method, then:
(§1) The effectiveness of a compound of the present invention as an inhibitor of Kallikrein can be determined using a relevant purified serine protease, and an appropriate synthetic substrate. The rate of hydrolysis of the chromogenic or fluorogenic substrate by the relevant serine protease was measured both in the absence and presence of compounds of the present invention. Assays were conducted at room temperature or at 37° C. […] A decrease in the rate of fluorescence change in the presence of inhibitor is indicative of enzyme inhibition. Such methods are known to one skilled in the art. The results of this assay are expressed as the inhibitory constant, K1.
Kallikrein determinations were made in 50 mM HEPES buffer at pH 7.4 containing 150 mM NaCl, 5 mM CaCl2, and 0.1% PEG 8000 (polyethylene glycol; Fisher Scientific). Determinations were made using purified Human plasma kallikrein at a final concentration of 0.5 nM (Enzyme Research Laboratories) and the synthetic substrate, Acetyl-K—P—R-AFC (Sigma # C6608) at a concentration of […].
Times required to achieve equilibration between enzyme and inhibitor were determined in control experiments. The reactions were performed under linear progress curve conditions and fluorescence increase measured at 405 Ex/510 Em nm. […] IC50 was determined by inflection point from a four parameter logistic curve fit. Ki was calculated using the Cheng Prusoff equation, Ki=IC50/(1+([S]/Km)).

Assay [2] has as its target T2, purified human Factor XIa (Homo sapiens, UniProt P03951).
T2 construct: purified human Factor XIa; purchased Sekisui Diagnostics
Nature of the assay: Factor XIa Assay. The format is biochemical. The conditions noted are these: fluorogenic substrate Z-Gly-Pro-Arg-AFC 100 μM, 40 pM enzyme, pH 7.4, read-out: F11a IC50. The method, then:
as §1, with “Coagulation Factor XIa” for “Kallikrein”, “The results of this assay are expressed as the inhibitory constant, K1.” left out
Factor XIa determinations were made in 50 mM HEPES buffer at pH 7.4 containing 150 mM NaCl, 5 mM CaCl2, and 0.1% PEG 8000 (polyethylene glycol; JT Baker or Fisher Scientific). Determinations were made using purified human Factor XIa at a final concentration of 40 pM (Sekisui Diagnostics) and he synthetic substrate, Z-Gly-Pro-Arg-AFC, TFA salt (Sigma #C0980) at a concentration of 100 μM.
Activity assays were performed by diluting a stock solution of substrate at least tenfold to a final concentration ≦0.1 Km into a solution containing enzyme or enzyme equilibrated with inhibitor. Times required to achieve equilibration between enzyme and inhibitor were determined in control experiments. Initial velocities of product formation in the absence (VO) or presence of inhibitor (Vi) were measured. Assuming competitive inhibition, and that unity is negligible compared Km/[S], [I]/e, and [I]/e (where [S], [I], and e respectively represent the total concentrations, of substrate, inhibitor and enzyme), the equilibrium constant (Ki) for dissociation of the inhibitor from the enzyme can be obtained from the dependence of VO/Vi on [I] shown in the following equation.

Each structure is given as a SMILES string.

T1 sequence (P03952 391-638 limits assumed): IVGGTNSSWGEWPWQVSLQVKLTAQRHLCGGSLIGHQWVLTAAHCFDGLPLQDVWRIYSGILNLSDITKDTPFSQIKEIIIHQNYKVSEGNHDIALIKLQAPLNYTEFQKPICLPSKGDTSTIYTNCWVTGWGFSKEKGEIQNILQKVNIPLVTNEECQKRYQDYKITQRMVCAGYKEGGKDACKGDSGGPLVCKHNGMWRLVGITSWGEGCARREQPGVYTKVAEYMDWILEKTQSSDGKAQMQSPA
T1 sequence (P03952 20-390 partner limits assumed): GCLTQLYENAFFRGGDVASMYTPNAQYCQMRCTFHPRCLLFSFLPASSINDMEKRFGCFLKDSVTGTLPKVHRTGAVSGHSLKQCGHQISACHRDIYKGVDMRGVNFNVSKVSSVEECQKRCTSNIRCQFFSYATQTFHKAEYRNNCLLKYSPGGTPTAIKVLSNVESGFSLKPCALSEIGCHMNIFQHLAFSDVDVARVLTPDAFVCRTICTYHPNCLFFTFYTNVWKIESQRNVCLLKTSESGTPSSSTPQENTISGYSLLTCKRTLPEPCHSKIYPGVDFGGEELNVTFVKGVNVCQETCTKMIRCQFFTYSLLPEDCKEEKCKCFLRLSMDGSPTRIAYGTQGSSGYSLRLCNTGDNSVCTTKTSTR
T2 sequence (P03951 388-625 limits assumed): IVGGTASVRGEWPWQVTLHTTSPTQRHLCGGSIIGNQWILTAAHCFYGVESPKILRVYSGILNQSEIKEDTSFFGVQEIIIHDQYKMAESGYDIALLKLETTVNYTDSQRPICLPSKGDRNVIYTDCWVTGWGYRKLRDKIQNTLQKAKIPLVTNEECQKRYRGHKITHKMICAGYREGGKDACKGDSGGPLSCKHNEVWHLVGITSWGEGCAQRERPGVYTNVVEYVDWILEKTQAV
T2 sequence (P03951 19-387 partner limits assumed): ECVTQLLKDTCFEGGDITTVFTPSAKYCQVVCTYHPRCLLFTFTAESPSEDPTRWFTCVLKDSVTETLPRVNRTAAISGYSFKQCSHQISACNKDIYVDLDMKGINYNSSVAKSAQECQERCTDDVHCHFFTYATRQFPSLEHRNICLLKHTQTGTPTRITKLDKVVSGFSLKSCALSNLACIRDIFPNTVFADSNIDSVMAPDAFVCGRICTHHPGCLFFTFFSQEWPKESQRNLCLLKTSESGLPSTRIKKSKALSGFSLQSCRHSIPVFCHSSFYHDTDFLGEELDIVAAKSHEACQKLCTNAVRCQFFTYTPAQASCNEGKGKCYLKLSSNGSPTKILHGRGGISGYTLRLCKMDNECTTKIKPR

Take `COC(=O)Nc1ccc(-c2cnc(C(CC3CC3)c3ccc(-c4cc(Cl)ccc4-n4cnnn4)c[n+]3[O-])[nH]2)cc1` (single isomer, unassigned) [Example 27, 5-(5-chloro-2-(1H-tetrazol-1-yl)phenyl)-2-(2-cyclopropyl-1-(5-(4-((methoxycarbonyl)amino)phenyl)-1H-imidazol-2-yl)ethyl)pyridine 1-oxide]: in assay [1], the IC50 stood at 207 nM.

As to `COC(=O)Nc1ccc(-c2c[nH]c(C(Cc3ccc(F)cc3)c3ccc(-c4cc(Cl)ccc4C(F)F)c[n+]3[O-])n2)cc1` (single isomer, unassigned) [Example 11, 5-(5-chloro-2-(difluoromethyl)phenyl)-2-(2-(4-fluorophenyl)-1-(4-(4-((methoxycarbonyl)amino)phenyl)-1H-imidazol-2-yl)ethyl)pyridine 1-oxide], the half-maximal inhibitory concentration (IC50) in assay [2] is 1.86 nM; in assay [1], 10.1 nM.

In the case of `O=C(O)c1scc(-c2cnc(C(CC3CC3)c3ccc(-c4cc(Cl)ccc4-n4cnnn4)c[n+]3[O-])[nH]2)c1F` (single isomer, unassigned) [Example 58, 2-(1-(5-(5-carboxy-4-fluorothiophen-3-yl)-1H-imidazol-2-yl)-2-cyclopropylethyl)-5-(5-chloro-2-(1H-tetrazol-1-yl)phenyl)pyridine 1-oxide], the results for the IC50 in assay [2] and in assay [1] were 11.8 nM and 1050 nM, respectively.

Consider `COC(=O)Nc1ccc(-c2[nH]c(C(CC3CC3)c3ccc(-c4cc(Cl)ccc4-n4cnnn4)c[n+]3[O-])nc2Cl)cc1` (single isomer, unassigned) [Example 79, 5-(5-chloro-2-(1H-tetrazol-1-yl)phenyl)-2-(1-(4-chloro-5-(4-((methoxycarbonyl)amino)phenyl)-1H-imidazol-2-yl)-2-cyclopropylethyl)pyridine 1-oxide], for which the IC50 in assay [2] was determined as 0.5 nM; in assay [1], 24 nM.

In the case of `COC(=O)Nc1ccc(-c2cnc(C(CC3CC3)c3ccc(-c4cc(Cl)ccc4-n4cc(Cl)nn4)c[n+]3[O-])[nH]2)cc1` (racemic) [Example 67], the IC50 came to 6.51 nM in assay [2] and 208 nM in assay [1].

Consider `COC(=O)Nc1ccc(-c2cnc(C(CC3CC3)c3ccc(-c4cc(Cl)ccc4-c4cnco4)c[n+]3[O-])[nH]2)cc1` (single isomer, unassigned) [Example 69], for which the IC50 in assay [2] worked out at 48 nM; in assay [1], 358 nM.

As for `COC(=O)Nc1ccc(-c2c[nH]c(C(CC3CC3)c3ccc(-c4c(-n5cnnn5)ccc(Cl)c4F)c[n+]3[O-])n2)cc1` (single isomer, unassigned) [Example 63, 5-(3-chloro-2-fluoro-6-(1H-tetrazol-1-yl)phenyl)-2-(2-cyclopropyl-1-(4-(4-((methoxycarbonyl)amino)phenyl)-1H-imidazol-2-yl)ethyl)pyridine 1-oxide], the IC50 in assay [1] is 231 nM.

With `COC(=O)Nc1ccc(-c2nnc(C(Cc3ccccc3)c3ccc(-c4cc(Cl)ccc4-n4cnnn4)c[n+]3[O-])o2)cc1` (racemic) [Example 83, 5-(5-chloro-2-(1H-tetrazol-1-yl)phenyl)-2-(1-(5-(4-((methoxycarbonyl)amino)phenyl)-1,3,4-oxadiazol-2-yl)-2-phenylethyl)pyridine 1-oxide], the half-maximal inhibitory concentration (IC50) in assay [2] is 1.2 nM; in assay [1] it was 68 nM.

Turning to `COC(=O)Nc1ccc(-c2cnc(C(CC3CC3)c3ccc(-c4cc(Cl)ccc4-c4csnn4)c[n+]3[O-])[nH]2)cc1` (racemic) [Example 72], the results for the IC50 in assay [2] and in assay [1] were 51.5 nM and 2610 nM, respectively.

In the case of `O=C(O)c1scc(-c2cnc(C(CC3CC3)c3ccc(-c4cc(Cl)ccc4-n4cnnn4)c[n+]3[O-])[nH]2)c1F` (single isomer, unassigned) [Example 57, 2-(1-(5-(5-carboxy-4-fluorothiophen-3-yl)-1H-imidazol-2-yl)-2-cyclopropylethyl)-5-(5-chloro-2-(1H-tetrazol-1-yl)phenyl)pyridine 1-oxide], the half-maximal inhibitory concentration (IC50) in assay [2] is 1.5 nM; in assay [1] it was 58 nM.

Regarding `N#Cc1ccc(-c2cnc(C(CC3CC3)c3ccc(-c4cc(Cl)ccc4-n4cnnn4)c[n+]3[O-])[nH]2)cc1` (single isomer, unassigned) [Example 29, 4-[2-(1-{5-[5-chloro-2-(1H-tetrazol-1-yl)phenyl]-1-oxidopyridin-2-yl}-2-cyclopropylethyl)-1H-imidazol-5-yl]benzonitrile], the figures for the IC50 in assay [2] and in assay [1] were 2.85 nM and 226 nM, respectively.

In the case of `O=C(O)c1scc(-c2c[nH]c(C(Cc3ccccc3)c3ccc(-c4cc(Cl)ccc4-n4cnnn4)c[n+]3[O-])n2)c1F` (single isomer, unassigned) [Example 9], the IC50 stood at 0.19 nM in assay [2] and 0.94 nM in assay [1].

With `O=C(O)c1ccc(-c2cnc(C(CC3CC3)c3ccc(-c4cc(Cl)ccc4-n4cnnn4)c[n+]3[O-])[nH]2)cc1` (single isomer, unassigned) [Example 56], the half-inhibitory concentration (IC50) in assay [2] came to 11 nM; in assay [1], 241 nM.

For `[O-][n+]1cc(-c2cc(Cl)ccc2-n2cnnn2)ccc1C(Cc1ccc(F)cc1)c1nc(-c2ccc(F)cc2)c[nH]1` (single isomer, unassigned) [Example 17], the IC50 is 14.8 nM in assay [2] and 404 nM in assay [1].

Consider `COC(=O)Nc1ccc(-c2c[nH]c(C(Cc3ccc(F)cc3)c3ccc(-c4c(C(F)F)ccc(Cl)c4F)c[n+]3[O-])n2)cc1` (racemic) [Example 13, 5-(3-Chloro-6-(difluoromethyl)-2-fluorophenyl)-2-(2-(4-fluorophenyl)-1-(4-(4-((methoxycarbonyl)amino)phenyl)-1H-imidazol-2-yl)ethyl)pyridine 1-oxide], for which the IC50 worked out at 11.3 nM in assay [2] and 10.3 nM in assay [1].

As to `[O-][n+]1cc(-c2cc(Cl)ccc2-n2cnnn2)ccc1C(CC1CC1)c1ncc(-c2cccc(F)c2)[nH]1` (single isomer, unassigned) [Example 32], the IC50 in assay [2] came to 14.7 nM; in assay [1] it was 428 nM.

Turning to `COC(=O)Nc1ccc(-c2[nH]c(C(CC3CC3)c3ccc(-c4cc(Cl)ccc4-n4cnnn4)c[n+]3[O-])nc2C)cc1` (single isomer, unassigned) [Example 77, methyl {4-[2-(1-{5-[5-chloro-2-(1H-tetrazol-1-yl)phenyl]-1-oxidopyridin-2-yl}-2-cyclopropylethyl)-4-methyl-1H-imidazol-5-yl]phenyl}carbamate], the IC50 in assay [2] is 1.52 nM; in assay [1], 48 nM.

As for `N#Cc1cccc(-c2cnc(C(CC3CC3)c3ccc(-c4cc(Cl)ccc4-n4cnnn4)c[n+]3[O-])[nH]2)c1` (single isomer, unassigned) [Example 36], the IC50 came out at 27.4 nM in assay [2] and 377 nM in assay [1].

Turning to `COC(=O)Nc1ccc(-c2cnc(C(CC3CC3)c3ccc(-c4cc(Cl)ccc4-n4cnnn4)c[n+]3[O-])[nH]2)cc1` (single isomer, unassigned) [Example 28, 5-(5-chloro-2-(1H-tetrazol-1-yl)phenyl)-2-(2-cyclopropyl-1-(5-(4-((methoxycarbonyl)amino)phenyl)-1H-imidazol-2-yl)ethyl)pyridine 1-oxide], the IC50 in assay [1] came to 20.8 nM.

In the case of `COC(=O)Nc1ccc(-c2c[nH]c(C(CC3CC3)c3ccc(-c4c(-n5cnnn5)ccc(Cl)c4F)c[n+]3[O-])n2)cc1` (single isomer, unassigned) [Example 64, 5-(3-chloro-2-fluoro-6-(1H-tetrazol-1-yl)phenyl)-2-(2-cyclopropyl-1-(4-(4-((methoxycarbonyl)amino)phenyl)-1H-imidazol-2-yl)ethyl)pyridine 1-oxide], the IC50 in assay [1] was 5.6 nM.
